# “And” between values parts separate entries of the source, which are not always exact repeats. Equal values may be shown once. Read-outs that look alike come from different tables or passages of the source.
# Tests used:
# HIV-1 protease [1] = target: T1, HIV-1 protease (Human immunodeficiency virus type 1 group M subtype B, UniProt P04585); test: biochemical; conditions: read-out: Protease % Inhib
# Method in brief: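 Percent inhibition came from fluorescence of FITC-tagged cleavage product, separated by filtration from uncleaved substrate captured on streptavidin-coated beads. The enzyme (10 μl of 0.1 μM) and compound acted on a biotin/FITC dual-labelled peptide for one hour at room temperature in the dark. The reaction ran in 0.1 M sodium acetate, pH 5.5, with 1.0 M NaCl and 0.05% NP-40.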
# HIV-1 protease [2] = target: T1, HIV-1 protease; test: biochemical; conditions: read-out: HIV Protease FITC Assay Ki
# Method in brief: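 Biotinylated, FITC-labelled peptide substrate cleaved in 0.1 M sodium acetate pH 5.5, 1.0 M NaCl, 0.05% NP-40, room temperature. Filtered labelled product read by fluorescence; nonlinear least-squares fit.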
SMILES,"inhibition at 0.123 µM (HIV-1 protease [1]; Table I, Dose 0.123 μM)","inhibition at 0.87 µM (HIV-1 protease [1]; Table I, Dose 0.870 μM)","inhibition at 1.1 µM (HIV-1 protease [1]; Table I, Dose 1.100 μM)","inhibition at 3.3 µM (HIV-1 protease [1]; Table I, Dose 3.300 μM)","inhibition at 10 µM (HIV-1 protease [1]; Table I, Dose 10.000 μM)","inhibition at 30 µM (HIV-1 protease [1]; Table I, Dose 30.000 μM)",Ki (HIV-1 protease [2]; Table I),"inhibition at 0.37 µM (HIV-1 protease [1]; Table I, Dose 0.370 μM)",inhibition at 0.123 µM (HIV-1 protease [1]),inhibition at 0.37 µM (HIV-1 protease [1]),inhibition at 1.1 µM (HIV-1 protease [1]),inhibition at 3.3 µM (HIV-1 protease [1]),inhibition at 10 µM (HIV-1 protease [1]),inhibition at 30 µM (HIV-1 protease [1]),Ki (HIV-1 protease [2]),"inhibition at 100 µM (HIV-1 protease [1]; Table I, Dose 100.000 μM)"
"CCC(C1=C(O)CC(CC(C)C)(CC(C)C)OC1=O)c1cccc(NS(=O)(=O)c2cn(C)cn2)c1 (stereo not shown) [Example 47, N-[3-[1-(4-hydroxy-6,6-diisobutyl-2-oxo-5,6-dihydro-2H-pyran-3-yl)-propyl]-phenyl]-1-methyl-1H-imidazole-4-sulfonamide]",66.3%,86.8%,94.7%,101%,98.7%,84.5%,3 nM and 2.98 nM,,,,,,,,,
CCCC1(CCC)CC(O)=C(C(c2cccc(NS(=O)(=O)c3cn(C)cn3)c2)C2CC2)C(=O)O1 (stereo not shown) [Example 48],111%,,110%,89.3%,111%,105%,0.52 nM,104%,,,,,,,,
CCCC1(CCC)CC(O)=C(C(c2cccc(NS(=O)(=O)c3cccc4cccnc34)c2)C2CC2)C(=O)O1 (stereo not shown) [Example 49],111%,,120%,106%,108%,112%,0.96 nM,120%,,,,,,,,
CCCC1(CCC)CC(O)=C(C(c2cccc(NS(=O)(=O)c3ccc(C#N)cc3)c2)C2CC2)C(=O)O1 (stereo not shown) [Example 50],101%,,113%,112%,101%,84.8%,1.78 nM,108%,,,,,,,,
"CCCC1(CCC)CC(O)=C(C(c2cccc(NS(=O)(=O)c3ccc(F)cc3)c2)C2CC2)C(=O)O1 (stereo not shown) [Example 51, 4-Fluoro-N-[3-[1-(4-hydroxy-2-oxo-6,6-dipropyl-5,6-dihydro-2H-pyran-3-yl)-cyclopropylmethyl]-phenyl]-benzenesulfonamide]",98.7%,,105%,101%,95.1%,79.7%,2.66 nM,104%,,,,,,,,
CCCC1(CCc2ccccc2)CC(O)=C(C(c2cccc(NS(=O)(=O)c3ccc(C#N)cc3)c2)C2CC2)C(=O)O1 (stereo not shown) [Example 58],64.9%,,94.2%,95.9%,100%,89.8%,3.8 nM,83.7%,,,,,,,,
CCCC1(CCc2ccccc2)CC(O)=C(C(c2cccc(NS(=O)(=O)c3ccc(F)cc3)c2)C2CC2)C(=O)O1 (stereo not shown) [Example 59],76.7%,,102%,99.9%,105%,102%,3.5 nM,90.5%,,,,,,,,
"CCCC1(CCc2ccccc2)CC(O)=C(C(c2cccc(NS(=O)(=O)c3cccc4cccnc34)c2)C2CC2)C(=O)O1 (stereo not shown) [Example 60, N-[3-[1-(4-Hydroxy-2-oxo-6-phenethyl-6-propyl-5,6-dihydro-2H-pyran-3-yl)-cyclopropylmethyl]-phenyl]-8-quinolinesulfonamide]",73%,,101%,101%,106%,107%,0.95 nM,94.3%,,,,,,,,
CCCC1(CCc2ccccc2)CC(O)=C(C(c2cccc(NS(=O)(=O)c3cn(C)cn3)c2)C2CC2)C(=O)O1 (stereo not shown) [Example 61],86.8%,,103%,103%,106%,104%,0.71 nM,95.5%,,,,,,,,
Cn1cnc(S(=O)(=O)Nc2cccc(C(C3=C(O)CC(CCc4ccccc4)(CCc4ccccc4)OC3=O)C3CC3)c2)c1 (stereo not shown) [Example 62],76.2%,,85.3%,78.7%,79.7%,79.4%,0.8 nM,85.2%,,,,,,,,
"CCCC1(CCc2ccccc2)CC(O)=C(C(CC)c2cccc(NS(=O)(=O)c3ccc(F)cc3)c2)C(=O)O1 (stereo not shown) [Example 93A, 4-Fluoro-N-[3-[1-(4-hydroxy-2-oxo-6-phenethyl-6-propyl-5,6-dihydro-2H-pyran-3-yl)-propyl]-phenyl]-benzenesulfonamide]",,,,,,,,,59.5%,90.4%,104%,109%,109%,96.6%,6.06 nM,
"O=c1oc(C(CC2CC2)CC2CC2)cc(O)c1C(c1cccc(NS(=O)(=O)c2ccc(F)cc2)c1)C1CC1 (stereo not shown) [Example 94, N-(3-{Cyclopropyl-[6-(2-cyclopropyl-1-cyclopropylmethyl-ethyl)-4-hydroxy-2-oxo-2H-pyran-3-yl]-methyl}-phenyl)-4-fluoro-benzenesulfonamide]",,,,,,,,,75.8%,107%,107%,105%,109%,111%,16.4 nM,
"Cn1cnc(S(=O)(=O)Nc2cccc(C(c3c(O)cc(C(CC4CC4)CC4CC4)oc3=O)C3CC3)c2)c1 (stereo not shown) [Example 97, N-(3-{Cyclopropyl-[6-(2-cyclopropyl-1-cyclopropylmethyl-ethyl)-4-hydroxy-2-oxo-2H-pyran-3-yl]-methyl}-phenyl)-1-methyl-1H-imidazole-4-sulfonamide]",,,,,,,,,105%,106%,110%,107%,116%,115%,1 nM,
"O=c1oc(C(CC2CC2)CC2CC2)cc(O)c1C(c1cccc(NS(=O)(=O)c2ccccn2)c1)C1CC1 (stereo not shown) [Example 99, N-(3-{Cyclopropyl-[6-(2-cyclopropyl-1-cyclopropylmethyl-ethyl)-4-hydroxy-2-oxo-2H-pyran-3-yl]-methyl}-phenyl)-2-pyridine-sulfonamide]",85.7%,,108%,100%,107%,103%,0.66 nM,102%,,,,,,,,
"Cn1ccnc1S(=O)(=O)Nc1cccc(C(c2c(O)cc(C(CC3CC3)CC3CC3)oc2=O)C2CC2)c1 (stereo not shown) [Example 100, N-(3-{Cyclopropyl-[6-(2-cyclopropyl-1-cyclopropylmethyl-ethyl)-4-hydroxy-2-oxo-2H-pyran-3-yl]-methyl}-phenyl)-1-methyl-1H-imidazole-2-sulfonamide]",103%,,91%,96.5%,,101%,0.73 nM,101%,,,,,,,,101%
"O=c1oc(C(CC2CC2)CC2CC2)cc(O)c1C(c1cccc(NS(=O)(=O)c2nc3ccccc3[nH]2)c1)C1CC1 (stereo not shown) [Example 101, N-(3-{Cyclopropyl-[6-(2-cyclopropyl-1-cyclopropylmethyl-ethyl)-4-hydroxy-2-oxo-2H-pyran-3-yl]-methyl}-phenyl)-1H-benzo-imidazole-2-sulfonamide]",70.2%,,93.3%,97%,102%,97.3%,0.66 nM,84%,,,,,,,,

# Source: patent US6169181A, “Compounds useful to treat retroviral infections” (Pharmacia & Upjohn Company, priority 1998, dated 2001)
